According to patent US20260273046A1, “METHOD OF VACCINATING FOR CANCER AND DEVICE AND KIT THEREFOR” (priority 2023, published 2026):

Columns and labels:
B16-OVA melanoma cells = assay: Preventive intradermal vaccination, B16-OVA tumor challenge; assay type: in vivo, C57BL/6J mice; conditions: two i.d. immunizations, three-week interval, then s.c. inoculation
Method: (§4) The efficacy of preventive cancer vaccines was investigated by two intradermal injections with OVA, Nano-11+OVA, NanoST+OVA, or PBS with a 21-day interval. Eleven days following the second injection, mice were inoculated subcutaneously in the flank with 1.0×10^6 B16-OVA, B16, or 2.5×10^6 E.G7-OVA cells suspended in 100 μl of PBS. […] Using a caliper, the length (maximum longitudinal dimension) and width (maximum transverse dimension) of the subcutaneous tumor were measured in order to determine the approximate volume. Tumor volume was calculated using the ellipsoidal formula: V=½×(Length×Width^2). Each tumor was measured by three observers to account for interobserver variability. The tumor endpoint measurements were taken when the tumors reached a volume of 2,000 mm^3, when the tumors became ulcerated, when the body condition scores dropped below 2, or when the mice became moribund. Mice without palpable tumors 32 days after tumor inoculation were considered tumor-free and euthanized.
(§5) To evaluate the contribution of CD4^+ and CD8^+ T cells response to prophylactic-mediated vaccine protection against B16-OVA and E.G7-OVA tumor formation, C57BL/6J mice were vaccinated with OVA, Nano-11+OVA, or NanoST+OVA, and 21 days later the vaccination was repeated. […] The tumor growth and survival of mice were monitored for 33 days post-tumor inoculation.

E.G7-OVA lymphoma cells = assay: Preventive intradermal vaccination, E.G7-OVA tumor challenge; assay type: in vivo, C57BL/6J mice; conditions: two i.d. immunizations, three-week interval, then s.c. inoculation
Method: as §4, §5

B16-OVA tumors = assay: Therapeutic intradermal vaccination of B16-OVA-bearing mice; assay type: in vivo, C57BL/6J mice; conditions: i.d. vaccination at 8 and 15 days post-tumor inoculation
Method: (§6) To mimic therapeutic immunotherapy, C57BL/6J mice were injected subcutaneously (s.c.) with 1.0×10^6 B16-OVA or 2.5×10^6 E.G7-OVA cells on day 0 to establish the tumor model. The B16-OVA-bearing mice received the same intradermal prophylactic vaccination (OVA, Nano-11+OVA, or NanoST+OVA) 8 days after tumor inoculation, followed by a second injection on day 15. The identical vaccination regimen was administered to E.G7-OVA-26 bearing mice at 1 and 21 days after tumor inoculation. The tumor endpoint measurements were recorded as described under prophylactic cancer vaccines. Mice without visible tumors were deemed tumor-free and euthanized 32 or 33 days post-tumor inoculation.

E.G7-OVA tumors = assay: Therapeutic intradermal vaccination of E.G7-OVA-bearing mice; conditions: by day 10
Method: as §6

human THP-1 cells = assay: CD80 and CD86 expression on stimulated THP-1 cells (flow cytometry); assay type: cell-based; conditions: Nano-11 80 μg/ml, ADU-S100 5 μg/ml, 24 and 48 hours
Method: For preparation of cells for activation in vitro, human THP-1 cells (TIB-202; American Type Culture Collection Manassas, VA) were cultured in complete RPMI (RPMI 1640 supplemented with 2 mM L-glutamine, 55 μM β-mercaptoethanol, 1×non-essential amino acids, 10 mM HEPES, 100 U/ml penicillin, 100 μg/ml streptomycin, and 0.25 μg/ml amphotericin) with 10% FBS. Cells were seeded at a density of 5×10^5 cells/well in a 96-well plate, stimulated with Nano-11 (80 μg/ml) and ADU-S100 (5 μg/ml) for 24 hours and 48 hours at 37° C. with 5% CO2, and then processed for flow cytometry analysis. […] THP1-Dual cells were subsequently stimulated with Nano-11 (80 μg/ml) and ADU-S100 (5 μg/ml) for 24 hours and 48 hours at 37° C. with 5% CO2, and the supernatants were collected for NF-κB and IRF pathway activation quantification.
(§1) For flow cytometry analysis, single-cell suspensions were prepared from isolated splenocytes or lymph nodes and washed with Cell Staining Buffer (CSB; BioLegend, San Diego, CA). […] Flow cytometry was conducted using an Attune NxT flow cytometer (Invitrogen, Waltham, MA), and the data were analyzed using FlowJo software (FlowJo, Ashland, OR).

NF-κB signaling pathway = assay: NF-κB-SEAP reporter in THP1-Dual cells; assay type: cell-based, human; conditions: Nano-11 80 μg/ml, ADU-S100 5 μg/ml; FIG. 1E
Method: (§2) For preparation of cells for activation in vitro, human THP-1 cells (TIB-202; American Type Culture Collection Manassas, VA) were cultured in complete RPMI (RPMI 1640 supplemented with 2 mM L-glutamine, 55 μM β-mercaptoethanol, 1×non-essential amino acids, 10 mM HEPES, 100 U/ml penicillin, 100 μg/ml streptomycin, and 0.25 μg/ml amphotericin) with 10% FBS. Cells were seeded at a density of 5×10^5 cells/well in a 96-well plate, stimulated with Nano-11 (80 μg/ml) and ADU-S100 (5 μg/ml) for 24 hours and 48 hours at 37° C. with 5% CO2, and then processed for flow cytometry analysis. Similarly, the NF-κB-SEAP and IRF-Luc reporter THP1-Dual cells (InvivoGen, San Diego, CA) were grown at a density of 1×10^5 cells/well in a 96-well plate in complete RPMI supplemented with 10% FBS, 100 μg/ml zeocin, 100 μg/ml normocin, and 10 μg/ml blasticidin. THP1-Dual cells were subsequently stimulated with Nano-11 (80 μg/ml) and ADU-S100 (5 μg/ml) for 24 hours and 48 hours at 37° C. with 5% CO2, and the supernatants were collected for NF-κB and IRF pathway activation quantification.

IRF3 signaling pathway = assay: IRF-Lucia luciferase reporter in THP1-Dual cells; assay type: cell-based, human; conditions: Nano-11 80 μg/ml, ADU-S100 5 μg/ml; FIG. 1F
Method: as §2

[1] = tested on: GC B cells and follicular helper T (Tfh) cells; assay: Intradermal immunization with OVA: draining lymph node, GC B cells and Tfh cells; assay type: in vivo, C57BL/6J mice; conditions: 10 days after second i.d. injection of the ear pinna
Method: (§3) For all experiments, six- to eight-week-old female C57BL/6J mice were purchased from the Jackson Laboratory (Bar Harbor, ME). They were housed in ventilated cages with ad libitum access to food and water, with three to four animals per box. The room was kept at 20±2° C. and 50±15% relative humidity, with a light/dark cycle of 12 hours. An acclimatization period of one week was given to the mice before the onset of the experiments. The Purdue University Animal Care and Use Committee gave approval to all animal experiments. Mice received 20 μl of vaccine through intradermal injection into the pinna of the ear. The vaccines were administered again after 7 or 21 days. Inhalational isoflurane was used to induce anesthesia in mice. Blood and tissue samples were collected 10 days after the second immunization, unless otherwise specified.
as §1, with “CA). The staining protocols were conducted in accordance with the manufacturer's instructions, and unless otherwise specified, all mAbs were obtained from BioLegend.” for “CA).”

OVA = assay: ELISA of serum OVA-specific IgG, IgG1, IgG2c titers; assay type: in vivo, C57BL/6J mice; conditions: 10 days after second i.d. vaccination with OVA
Method: as §3
OVA-specific IgG, IgG1, and IgG2c titers were measured by enzyme-linked immunosorbent assays (ELISA) on serum samples taken 10 days following the second vaccination, as previously reported (Hernandez-Franco (2021)). […] The reaction was stopped with the addition of 50 μl 2 M sulfuric acid, and absorbance at 450 nm (OD 450) was determined using the Synergy HT microplate reader (BioTek, Winooski, VT). End-point titers for OVA-specific antibodies were determined when the dilution at which OD 450 nm approached 0.2. […]

[2] = tested on: SIINFEKL-specific B3Z CD8+ T cell hybridoma; assay: B3Z antigen cross-presentation assay with DC2.4 cells; assay type: cell-based, murine; conditions: OVA with 80 μg/ml Nano-11 and/or 5 μg/ml ADU-S100; OD 590
Method: The B3Z CD8^+ T cell hybridoma cell line that expresses β-galactosidase under the control of the IL-2 promoter was utilized to detect antigen cross-presentation of the OVA 257-264 (SIINFEKL, InvivoGen, San Diego, CA) peptide (see Cruz et al., Annu. Rev. Immunol. 35: 149-176 (2017), which is incorporated herein by reference). Briefly, DC2.4 cells at 1×10^5 cells/well on 96-well round bottom plates were cultured in complete RPMI containing 10% FBS. The DC2.4 cells were stimulated with 10, 100, or 1,000 μg/ml OVA adsorbed to 80 μg/ml Nano-11 or the NanoST nanoparticle adjuvant comprised of 80 μg/ml Nano-11 and 5 μg/ml ADU-S100 (NanoST) for 3 hours at 37° C. with 5% CO2. Cells in media only or treated with 0.5 μg/ml OVA 257-264 (SIINFEKL) served as negative and positive controls, respectively. The cells were centrifuged at 300×g for 5 minutes and then washed three times with 200 μl of sterile PBS/0.1% BSA. Following fixation with 200 μl of phosphate-buffered saline (PBS)/0.2% paraformaldehyde for 15 minutes at 4° C., cells were washed twice with complete RPMI. Each well was seeded with 1×10^5 B3Z cells in complete RPMI containing 10% FBS for 16 hours at 37° C. with 5% CO2. […] After 2, 4, 6, 8, 12, and 24 hours, the conversion of […] was quantified by measuring the absorbance at 590 nm (OD 590) using a microplate reader (BioTek Instruments, Winooski, VT).

human STING alleles = conditions: cited from earlier work
[3] = tested on: metastatic solid tumors or lymphomas; conditions: intra-tumoral injection, patients; cited from earlier work
[4] = tested on: recurrent or metastatic head and neck squamous cell carcinoma; conditions: in conjunction with pembrolizumab; cited from earlier work
[5] = tested on: tumor-specific CD8+ T cells; conditions: intratumoral injection; cited from earlier work

Which results are given for “OVA: endotoxin-free ovalbumin, model tumor-specific antigen, given unadjuvanted”?
development of B16-OVA tumors (B16-OVA melanoma cells): positive for tumors; development of E.G7-OVA lymphomas (E.G7-OVA lymphoma cells): positive for tumors; survival of B16-OVA tumor-bearing mice (B16-OVA tumors): none of the OVA-vaccinated mice survived to day 20; tumor formation (E.G7-OVA tumors): 100%

Which results are given for `Nc1ncnc2c1ncn2[C@@H]1O[C@@H]2COP(=O)([S-])O[C@@H]3[C@H](O)[C@@H](COP([O-])(=S)O[C@H]2[C@H]1O)O[C@H]3n1cnc2c(N)ncnc21.[Na+].[Na+]` (stereo partly drawn) [ADU-S100]?
CD80 expression (human THP-1 cells; FIGS. 1A, 1C): induced CD80 expression; CD86 expression (human THP-1 cells; FIGS. 1B, 1D): neither of which had any effect on CD86 expression; NF-κB activation (NF-κB signaling pathway): activated NF-κB and IRF3; IRF3 activation (IRF3 signaling pathway): activated NF-κB and IRF3; size of draining lymph node (superficial parotid) [1]: enlarged draining lymph node; anti-OVA IgG1 titer (OVA): enhanced anti-OVA total IgG and IgG1 titers; anti-OVA total IgG titer (OVA): enhanced anti-OVA total IgG and IgG1 titers; cross-presentation of OVA and activation of B3Z CD8+ T cells by DC2.4 cells [2]: decreased the cross-presentation of OVA; affinity to human STING alleles (human STING alleles): superior affinity to all known human STING alleles; anti-tumor activity [3]: failed to demonstrate conclusive evidence of anti-tumor activity; dose-limiting toxicities [3]: no dose-limiting toxicities; adverse reactions [4]: no adverse reactions; anti-tumor efficacy [4]: only modest anti-tumor efficacy; generation of tumor-specific CD8+ T cells [5]: leads to the generation of tumor-specific CD8
